Reference: US20230250392A1, “MEDIA AND METHODS FOR ENHANCING THE SURVIVAL AND PROLIFERATION OF STEM CELLS” (STEMCELL TECHNOLOGIES CANADA INC., priority 2017, published 2023)

What was measured:
Assay type in all cases: cell-based, human
WLS-1C and H1 cells = test: Example 11: cloning efficiency with albumins of different suppliers with or without two free fatty acids; details: for cloning efficiency of albumin without the additional two free fatty acids: compared among suppliers' albumins; for cloning efficiency when albumin is provided along with two free fatty acids: versus the same albumin without added fatty acids
H1 and WLS-1C hPSCs = test: Example 12: cloning efficiency with individual free fatty acids in the presence of a carrier; details: 600 μg free fatty acid per gram of carrier spiked into mTeSR1 plus 10 μM Y-27632
Protocol: 12-well culture plates were coated with 0.5 mL of cloning matrix or extracellular matrix (1:25 dilution in […] Dilution Buffer) and placed at room temperature for 1 hour. The matrix was then aspirated and 1 mL of media (mTeSRTM1 or TeSRTM-E8TM supplemented with either 10 μM Y27632 or media comprising lipid-enriched albumin, GABA, pipecolic acid, lithium chloride, FGF, TGFβ and Y-27632 (hereafter termed cloning supplement)) was added to each well and the plate was placed at 37° C. for 1 hour. hPSC lines were dissociated to single cells and seeded into the pre-warmed plates at 25 cells/cm^2 and placed at 37° C. for two days. The cells were then fed with fresh media (mTeSRTM1 or TeSRTM-E8TM supplemented with either 10 μM Y-27632 or cloning supplement) and placed at 37° C. for two days. On day four the cells were then fed with 1 mL of mTeSRTM1 or TeSRTM-E8TM without additives and fed daily until day seven. Cells were then fixed using 4% paraformaldehyde and stained for alkaline phosphatase. Undifferentiated colonies were then counted and cloning efficiency was determined using the following calculation: (Number of undifferentiated colonies at day seven (per well)/Number of cells seeded at day zero (per well))×100. (Error bars represent standard deviation from three biological replicates). In this experiment, 600 μg of the shown free fatty acids were spiked into culture medium (mTeSRTM1 plus 10 μM Y-27632) per gram of carrier also spiked into the culture medium. Cloning efficiencies were calculated as described in Example 1, for example.

H1, WLS-1C, and H9 hPSCs = test: Example 13: cloning efficiency with detrimental fatty acids loaded onto a BSA sample; details: 300 μg/g loaded onto a specific BSA sample
Protocol: In the experiment shown in FIG. 13, 300 μg/g of either arachidonic acid or α-linolenic acid were loaded onto a specific BSA sample and added to a culture comprising H1, WLS-1C, and H9 hPSCs.

[1] = test system: WLS-1C, H1 and STiPS-F016 cells; test: Example 8: cloning efficiency with lipid poor albumin loaded with one, two or three fatty acids; details: for cloning efficiency in comparison to the 3 fatty acid-loaded albumin: H1, WLS-1C, STiPS-F016, fatty acid loaded on lipid poor albumin at 600 μg per gram, final 6 ng/mL
Protocol: In particular, each of the one or more fatty acids was incubated with albumin at a concentration of 600 μg of each fatty acid per gram of albumin. The product of such incubation was subsequently added to the culture medium at a final concentration of 6 ng/mL.

Compound: A1: BSA of Supplier A lot 1, already comprising 3000-7000 ug/g overall fatty acid
- cloning efficiency of albumin without the additional two free fatty acids (WLS-1C and H1 cells): lowest cloning efficiencies
- cloning efficiency when albumin is provided along with two free fatty acids (WLS-1C and H1 cells): not enhanced

Compound: CCCCCCCCCCCCCC(=O)O [myristic acid]
- effect on survival and proliferation (cloning efficiency) (H1 and WLS-1C hPSCs): helpful in enhancing the survival and proliferation

Compound: CC/C=C\C/C=C\C/C=C\CCCCCCCC(=O)O [α-linolenic acid]
- effect on survival and proliferation (cloning efficiency) (H1 and WLS-1C hPSCs): detrimental
- cloning efficiency of the tested BSA sample (H1, WLS-1C, and H9 hPSCs): decreased the cloning efficiency

Compound: A2: BSA of Supplier A lot 2, already comprising 3000-7000 ug/g overall fatty acid
- cloning efficiency of albumin without the additional two free fatty acids (WLS-1C and H1 cells): lowest cloning efficiencies
- cloning efficiency when albumin is provided along with two free fatty acids (WLS-1C and H1 cells): not enhanced

Compound: CCCCC/C=C\C/C=C\C/C=C\C/C=C\CCCC(=O)O [arachidonic acid]
- effect on survival and proliferation (cloning efficiency) (H1 and WLS-1C hPSCs): detrimental
- cloning efficiency of the tested BSA sample (H1, WLS-1C, and H9 hPSCs): decreased the cloning efficiency

Compound: CCCCCCCCCCCCCCCC(=O)O [palmitic acid]
- effect on survival and proliferation (cloning efficiency) (H1 and WLS-1C hPSCs): helpful in enhancing the survival and proliferation
- cloning efficiency in comparison to the 3 fatty acid-loaded albumin [1]: comparable cloning efficiencies

Compound: CCCCCCCCCCCCCCCCCC(=O)O [stearic acid]
- effect on survival and proliferation (cloning efficiency) (H1 and WLS-1C hPSCs): helpful in enhancing the survival and proliferation

Compound: CCCCCCCC/C=C\CCCCCCCC(=O)O [oleic acid]
- effect on survival and proliferation (cloning efficiency) (H1 and WLS-1C hPSCs): helpful in enhancing the survival and proliferation
- cloning efficiency in comparison to the 3 fatty acid-loaded albumin [1]: comparable cloning efficiencies

Compound: CC(C)CCC[C@@H](C)[C@H]1CC[C@H]2[C@@H]3CC=C4C[C@@H](O)CC[C@]4(C)[C@H]3CC[C@]12C [cholesterol]
- effect on survival and proliferation (cloning efficiency) (H1 and WLS-1C hPSCs): helpful in enhancing the survival and proliferation

Compound: CCCCC/C=C\C/C=C\CCCCCCCC(=O)O [linoleic acid]
- cloning efficiency relative to control and oleic and/or palmitic acid ([1]; WLS-1C and H1, only this fatty acid loaded on albumin at 600 μg per gram): reduce cloning efficiency
